The NIST ThermoML archive (doi:10.1016/j.tca.2004.09.012)
Numbers after ± are expanded uncertainties. Values belong to the compound of their own block, whether it stands above or below them.

Legend:
[1] = excess molar enthalpy (molar enthalpy of mixing); xn = mol fraction of the nth substance listed; conditions: 298.15 K, 101.3 kPa, Liquid
[2] = 298.15 K; 101.33 kPa; Liquid

SMILES: CC(=O)CC(C)C [4-methylpentan-2-one] + CCCCO
excess molar enthalpy ([1]; x1 = 0.1005): 0.124 ± 0.00287 kcal/mol
excess molar enthalpy ([1]; x1 = 0.1998): 0.212 ± 0.00478 kcal/mol
excess molar enthalpy ([1]; x1 = 0.2999): 0.272 ± 0.00598 kcal/mol
excess molar enthalpy ([1]; x1 = 0.3967): 0.312 ± 0.00669 kcal/mol
excess molar enthalpy ([1]; x1 = 0.3996): 0.309 ± 0.00669 kcal/mol
excess molar enthalpy ([1]; x1 = 0.4967): 0.331 ± 0.00717 kcal/mol
excess molar enthalpy ([1]; x1 = 0.5978): 0.326 ± 0.00693 kcal/mol
excess molar enthalpy ([1]; x1 = 0.6981): 0.297 ± 0.00645 kcal/mol
excess molar enthalpy ([1]; x1 = 0.7978): 0.238 ± 0.00526 kcal/mol
excess molar enthalpy ([1]; x1 = 0.9006): 0.14 ± 0.00335 kcal/mol

mass density [2]: 815.2 ± 0.99 kg/m3
SMILES: CCCCCCO [hexan-1-ol]

SMILES: CC(=O)CC(C)C [4-methylpentan-2-one]
mass density [2]: 796.19 ± 0.63 kg/m3

mass density [2]: 785.15 ± 0.58 kg/m3
SMILES: CCO [ethanol]

mass density [2]: 805.75 ± 0.69 kg/m3
SMILES: CCCCO [butan-1-ol]

mass density [2]: 799.51 ± 0.57 kg/m3
SMILES: CCCO [propan-1-ol]

mass density [2]: 786.5 ± 0.61 kg/m3
SMILES: CO [methanol]

SMILES: CC(=O)CC(C)C [4-methylpentan-2-one] + CCCCCO
excess molar enthalpy ([1]; x1 = 0.1008): 0.13 ± 0.00311 kcal/mol
excess molar enthalpy ([1]; x1 = 0.2043): 0.224 ± 0.00502 kcal/mol
excess molar enthalpy ([1]; x1 = 0.304): 0.286 ± 0.00621 kcal/mol
excess molar enthalpy ([1]; x1 = 0.403): 0.322 ± 0.00693 kcal/mol
excess molar enthalpy ([1]; x1 = 0.4035): 0.324 ± 0.00693 kcal/mol
excess molar enthalpy ([1]; x1 = 0.503): 0.341 ± 0.00717 kcal/mol
excess molar enthalpy ([1]; x1 = 0.5035): 0.337 ± 0.00717 kcal/mol
excess molar enthalpy ([1]; x1 = 0.6017): 0.334 ± 0.00717 kcal/mol
excess molar enthalpy ([1]; x1 = 0.7007): 0.303 ± 0.00645 kcal/mol
excess molar enthalpy ([1]; x1 = 0.7996): 0.242 ± 0.00526 kcal/mol
excess molar enthalpy ([1]; x1 = 0.9002): 0.144 ± 0.00335 kcal/mol

mass density [2]: 810.88 ± 0.99 kg/m3
SMILES: CCCCCO [pentan-1-ol]

SMILES: CC(=O)CC(C)C [4-methylpentan-2-one] + CO
excess molar enthalpy ([1]; x1 = 0.0523): 0.034 ± 0.00232 kcal/mol
excess molar enthalpy ([1]; x1 = 0.0998): 0.0604 ± 0.00335 kcal/mol
excess molar enthalpy ([1]; x1 = 0.1502): 0.0839 ± 0.0043 kcal/mol
excess molar enthalpy ([1]; x1 = 0.2002): 0.105 ± 0.00526 kcal/mol
excess molar enthalpy ([1]; x1 = 0.2495): 0.126 ± 0.00598 kcal/mol
excess molar enthalpy ([1]; x1 = 0.2954): 0.159 ± 0.00741 kcal/mol
excess molar enthalpy ([1]; x1 = 0.4019): 0.192 ± 0.0086 kcal/mol
excess molar enthalpy ([1]; x1 = 0.5037): 0.209 ± 0.00932 kcal/mol
excess molar enthalpy ([1]; x1 = 0.6059): 0.211 ± 0.00932 kcal/mol
excess molar enthalpy ([1]; x1 = 0.707): 0.195 ± 0.00884 kcal/mol
excess molar enthalpy ([1]; x1 = 0.8119): 0.155 ± 0.00717 kcal/mol
excess molar enthalpy ([1]; x1 = 0.908): 0.0917 ± 0.00454 kcal/mol

SMILES: CC(=O)CC(C)C [4-methylpentan-2-one] + CCCCCCO
excess molar enthalpy ([1]; x1 = 0.0995): 0.134 ± 0.00311 kcal/mol
excess molar enthalpy ([1]; x1 = 0.2004): 0.234 ± 0.00526 kcal/mol
excess molar enthalpy ([1]; x1 = 0.3015): 0.302 ± 0.00645 kcal/mol
excess molar enthalpy ([1]; x1 = 0.4029): 0.344 ± 0.00741 kcal/mol
excess molar enthalpy ([1]; x1 = 0.5082): 0.361 ± 0.00765 kcal/mol
excess molar enthalpy ([1]; x1 = 0.5096): 0.36 ± 0.00765 kcal/mol
excess molar enthalpy ([1]; x1 = 0.6091): 0.35 ± 0.00741 kcal/mol
excess molar enthalpy ([1]; x1 = 0.7086): 0.313 ± 0.00669 kcal/mol
excess molar enthalpy ([1]; x1 = 0.8049): 0.248 ± 0.0055 kcal/mol
excess molar enthalpy ([1]; x1 = 0.903): 0.144 ± 0.00335 kcal/mol

SMILES: CC(=O)CC(C)C [4-methylpentan-2-one] + CCCO
excess molar enthalpy ([1]; x1 = 0.0797): 0.0934 ± 0.00237 kcal/mol
excess molar enthalpy ([1]; x1 = 0.1587): 0.164 ± 0.00382 kcal/mol
excess molar enthalpy ([1]; x1 = 0.2384): 0.22 ± 0.00478 kcal/mol
excess molar enthalpy ([1]; x1 = 0.3192): 0.262 ± 0.00574 kcal/mol
excess molar enthalpy ([1]; x1 = 0.3901): 0.29 ± 0.00621 kcal/mol
excess molar enthalpy ([1]; x1 = 0.4948): 0.31 ± 0.00669 kcal/mol
excess molar enthalpy ([1]; x1 = 0.5955): 0.307 ± 0.00669 kcal/mol
excess molar enthalpy ([1]; x1 = 0.6981): 0.281 ± 0.00598 kcal/mol
excess molar enthalpy ([1]; x1 = 0.8004): 0.225 ± 0.00502 kcal/mol
excess molar enthalpy ([1]; x1 = 0.9012): 0.135 ± 0.00311 kcal/mol

SMILES: CC(=O)CC(C)C [4-methylpentan-2-one] + CCO
excess molar enthalpy ([1]; x1 = 0.0772): 0.0649 ± 0.00179 kcal/mol
excess molar enthalpy ([1]; x1 = 0.1571): 0.122 ± 0.00287 kcal/mol
excess molar enthalpy ([1]; x1 = 0.2369): 0.169 ± 0.00382 kcal/mol
excess molar enthalpy ([1]; x1 = 0.2947): 0.208 ± 0.00454 kcal/mol
excess molar enthalpy ([1]; x1 = 0.3977): 0.251 ± 0.0055 kcal/mol
excess molar enthalpy ([1]; x1 = 0.5): 0.279 ± 0.00598 kcal/mol
excess molar enthalpy ([1]; x1 = 0.5995): 0.287 ± 0.00621 kcal/mol
excess molar enthalpy ([1]; x1 = 0.6981): 0.273 ± 0.00598 kcal/mol
excess molar enthalpy ([1]; x1 = 0.7954): 0.232 ± 0.00502 kcal/mol
excess molar enthalpy ([1]; x1 = 0.897): 0.149 ± 0.00359 kcal/mol
